Measurements: ChEMBL document CHEMBL1121760, “Methotrexate analogues. 14. Synthesis of new gamma-substituted derivatives as dihydrofolate reductase inhibitors and potential anticancer agents” (1981)

Experiments:
[1] = target: T1, Dihydrofolate reductase (Mus musculus) (UniProt P00375); conditions: L1210
T1 sequence (whole entry): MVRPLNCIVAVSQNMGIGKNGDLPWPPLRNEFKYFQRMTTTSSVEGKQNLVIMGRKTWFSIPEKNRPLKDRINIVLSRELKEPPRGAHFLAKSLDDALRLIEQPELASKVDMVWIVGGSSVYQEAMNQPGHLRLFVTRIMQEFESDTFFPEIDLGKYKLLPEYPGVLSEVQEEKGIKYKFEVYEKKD
Description: Compound was tested for inhibition of L1210 dihydrofolate reductase by competitive [3H]MTX binding assay in L1210 mouse leukemia cell lines

[2] = target: Dihydrofolate reductase (Lactobacillus casei) (UniProt P00381); conditions: Lacticaseibacillus casei
Sequence of Dihydrofolate reductase (Lactobacillus casei) (P00381 whole entry): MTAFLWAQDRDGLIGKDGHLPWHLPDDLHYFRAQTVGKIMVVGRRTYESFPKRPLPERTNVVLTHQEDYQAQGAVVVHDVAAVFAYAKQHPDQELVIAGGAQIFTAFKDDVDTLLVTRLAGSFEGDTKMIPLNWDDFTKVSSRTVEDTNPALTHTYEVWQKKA
Description: Compound was tested for inhibition of Lactobacillus casei dihydrofolate reductase using competitive [3H]MTX binding assay

[3] = target: Dihydrofolate reductase (Lactobacillus casei) (UniProt P00381); conditions: Lacticaseibacillus casei; remark: listed apart in the source
Description: Compound was tested for inhibition of Lactobacillus casei dihydrofolate reductase using spectrophotometric assay at 340 nm

L1210 = experiment: Growth inhibitory activity against L1210 mouse leukemia cell line; type: functional; conditions: read-out: ID50 (the source's name)

SMILES | ID50 [1] | ID50 [2] | ID50 [3] | IC50 (L1210)
CCCCNC(=O)CCC(NC(=O)c1ccc(N(C)Cc2cnc3nc(N)nc(N)c3n2)cc1)C(=O)O (stereo not given) | 3.3 nM | 36 nM | 53 nM | 90 nM
CN(Cc1cnc2nc(N)nc(N)c2n1)c1ccc(C(=O)NC(CCC(=O)NCc2ccccc2)C(=O)O)cc1 (stereo not given) | – | – | – | 30 nM
CCCCNC(=O)CCC(NC(=O)c1ccc(N(C)Cc2cnc3nc(N)nc(N)c3n2)cc1)C(=O)OCc1ccccc1 (stereo not given) | – | 250 nM | – | –
CN(Cc1cnc2nc(N)nc(N)c2n1)c1ccc(C(=O)N[C@@H](CCC(=O)O)C(=O)O)cc1 [METHOTREXATE] | – | – | – | 10 nM

The next lines start with the values.

ID50 [1] | ID50 [2] | ID50 [3] | IC50 (L1210) | SMILES
11 nM | 3900 nM | 330 nM | 4900 nM | COC(=O)C(CCC(=O)OC(C)(C)C)NC(=O)c1ccc(N(C)Cc2cnc3nc(N)nc(N)c3n2)cc1 (stereo not given)
12 nM | 13 nM | 2.1 nM | 20 nM | CN(Cc1cnc2nc(N)nc(N)c2n1)c1ccc(C(=O)NC(CCC(=O)NN)C(=O)O)cc1 (stereo not given)
2.9 nM | 12 nM | 25 nM | 20 nM | CN(Cc1cnc2nc(N)nc(N)c2n1)c1ccc(C(=O)NC(CCC(=O)OC(C)(C)C)C(=O)O)cc1 (stereo not given)
19 nM | 2200 nM | 200 nM | 9700 nM | COC(=O)CCC(NC(=O)c1ccc(N(C)Cc2cnc3nc(N)nc(N)c3n2)cc1)C(=O)OC(C)(C)C (stereo not given)
35 nM | 210 nM | 36 nM | 5200 nM | CN(Cc1cnc2nc(N)nc(N)c2n1)c1ccc(C(=O)NC(CCC(=O)O)C(=O)OC(C)(C)C)cc1 (stereo not given)
– | 2200 nM | 170 nM | 11000 nM | CN(Cc1cnc2nc(N)nc(N)c2n1)c1ccc(C(=O)NC(CCC(=O)NN)C(=O)OC(C)(C)C)cc1 (stereo not given)
